# PubChem BioAssay (NCI)
#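 These data come from cells grown in 96-well plates and exposed to compound for 48 hours at five concentrations. TGI marks complete inhibition of growth.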
# Key:
# Assay in all cases: NCI anticancer screen, dose series, 48 h
# MALME-3M melanoma = test system: MALME-3M melanoma
# EKVX NSCLC = test system: EKVX NSCLC
# COLO 205 colon = test system: COLO 205 colon
# MOLT-4 leukemia = test system: MOLT-4 leukemia
# OVCAR-8 ovarian = test system: OVCAR-8 ovarian
# HCT-116 colon = test system: HCT-116 colon
# HCT-15 colon = test system: HCT-15 colon
# OVCAR-4 ovarian = test system: OVCAR-4 ovarian
# OVCAR-5 ovarian = test system: OVCAR-5 ovarian
# A549 NSCLC = test system: A549 NSCLC
# K-562 leukemia = test system: K-562 leukemia
# UACC-257 melanoma = test system: UACC-257 melanoma
# NCI/ADR-RES ovarian = test system: NCI/ADR-RES ovarian
# MDA-N = test system: MDA-N
# SR leukemia = test system: SR leukemia
# CCRF-CEM leukemia = test system: CCRF-CEM leukemia
# SN12C renal = test system: SN12C renal
# SF-295 CNS = test system: SF-295 CNS
# DU-145 prostate = test system: DU-145 prostate
# UACC-62 melanoma = test system: UACC-62 melanoma
# NCI-H226 lung = test system: NCI-H226 lung
# SK-MEL-2 melanoma = test system: SK-MEL-2 melanoma
# SNB-19 CNS = test system: SNB-19 CNS
# MDA-MB-435 = test system: MDA-MB-435
# NCI-H23 lung = test system: NCI-H23 lung
# HS 578T breast = test system: HS 578T breast
# HT29 colon = test system: HT29 colon
# U251 CNS = test system: U251 CNS
# SK-MEL-5 melanoma = test system: SK-MEL-5 melanoma
# TK-10 renal = test system: TK-10 renal
# HOP-62 NSCLC = test system: HOP-62 NSCLC
# SF-539 CNS = test system: SF-539 CNS
# 786-0 renal = test system: 786-0 renal
# SNB-75 CNS = test system: SNB-75 CNS
# SK-MEL-28 melanoma = test system: SK-MEL-28 melanoma
# LOX IMVI melanoma = test system: LOX IMVI melanoma
# IGROV1 ovarian = test system: IGROV1 ovarian
# PC-3 prostate = test system: PC-3 prostate
# ACHN renal = test system: ACHN renal
# UO-31 renal = test system: UO-31 renal
# MDA-MB-231 breast = test system: MDA-MB-231 breast
# SF-268 CNS = test system: SF-268 CNS
# M14 melanoma = test system: M14 melanoma
# MCF7 breast = test system: MCF7 breast
# RPMI-8226 leukemia = test system: RPMI-8226 leukemia
# A498 renal = test system: A498 renal
# SW-620 colon = test system: SW-620 colon
# OVCAR-3 ovarian = test system: OVCAR-3 ovarian
# KM12 colon = test system: KM12 colon
# SK-OV-3 ovarian = test system: SK-OV-3 ovarian
# HOP-92 NSCLC = test system: HOP-92 NSCLC
# NCI-H460 lung = test system: NCI-H460 lung
# RXF 393 renal = test system: RXF 393 renal
# HL-60(TB) leukemia = test system: HL-60(TB) leukemia
# CAKI-1 renal = test system: CAKI-1 renal
# NCI-H522 lung = test system: NCI-H522 lung
# HCC-2998 colon = test system: HCC-2998 colon
smiles,measurement,setting,value
CC(=O)Oc1cc2oc(=O)cc(C)c2cc1OC(C)=O,TGI,MALME-3M melanoma,> 100 µM
same,TGI,EKVX NSCLC,> 100 µM
same,TGI,COLO 205 colon,> 100 µM
same,TGI,MOLT-4 leukemia,> 100 µM
same,TGI,OVCAR-8 ovarian,> 100 µM
same,TGI,HCT-116 colon,> 100 µM
same,TGI,HCT-15 colon,> 100 µM
same,TGI,OVCAR-4 ovarian,> 100 µM
same,TGI,OVCAR-5 ovarian,> 100 µM
same,TGI,A549 NSCLC,> 100 µM
same,TGI,K-562 leukemia,> 100 µM
same,TGI,UACC-257 melanoma,> 100 µM
same,TGI,NCI/ADR-RES ovarian,> 100 µM
same,TGI,MDA-N,> 100 µM
same,TGI,SR leukemia,> 100 µM
same,TGI,CCRF-CEM leukemia,> 100 µM
same,TGI,SN12C renal,> 100 µM
same,TGI,SF-295 CNS,> 100 µM
same,TGI,DU-145 prostate,> 100 µM
same,TGI,UACC-62 melanoma,> 100 µM
same,TGI,NCI-H226 lung,> 100 µM
same,TGI,SK-MEL-2 melanoma,> 100 µM
same,TGI,SNB-19 CNS,> 100 µM
same,TGI,MDA-MB-435,> 100 µM
same,TGI,NCI-H23 lung,> 100 µM
same,TGI,HS 578T breast,> 100 µM
same,TGI,HT29 colon,> 100 µM
same,TGI,U251 CNS,> 100 µM
same,TGI,SK-MEL-5 melanoma,> 100 µM
same,TGI,TK-10 renal,> 100 µM
same,TGI,HOP-62 NSCLC,> 100 µM
same,TGI,SF-539 CNS,> 100 µM
same,TGI,786-0 renal,> 100 µM
same,TGI,SNB-75 CNS,> 100 µM
same,TGI,SK-MEL-28 melanoma,> 100 µM
same,TGI,LOX IMVI melanoma,> 100 µM
same,TGI,IGROV1 ovarian,> 100 µM
same,TGI,PC-3 prostate,> 100 µM
same,TGI,ACHN renal,> 100 µM
same,TGI,UO-31 renal,> 100 µM
same,TGI,MDA-MB-231 breast,> 100 µM
same,TGI,SF-268 CNS,> 100 µM
same,TGI,M14 melanoma,> 100 µM
same,TGI,MCF7 breast,> 100 µM
same,TGI,RPMI-8226 leukemia,> 100 µM
same,TGI,A498 renal,> 100 µM
same,TGI,SW-620 colon,> 100 µM
same,TGI,OVCAR-3 ovarian,> 100 µM
same,TGI,KM12 colon,> 100 µM
same,TGI,SK-OV-3 ovarian,> 100 µM
O=C1OC(c2ccc(O)c(F)c2)(c2ccc(O)c(F)c2)c2cccc3cccc1c23,TGI,MALME-3M melanoma,> 25 µM
same,TGI,EKVX NSCLC,19.4 µM
same,TGI,COLO 205 colon,> 25 µM
same,TGI,MOLT-4 leukemia,> 25 µM
same,TGI,OVCAR-8 ovarian,> 25 µM
same,TGI,HCT-116 colon,> 25 µM
same,TGI,HCT-15 colon,> 25 µM
same,TGI,OVCAR-4 ovarian,0.193 µM
same,TGI,OVCAR-5 ovarian,> 25 µM
same,TGI,A549 NSCLC,> 25 µM
same,TGI,K-562 leukemia,> 25 µM
same,TGI,HOP-92 NSCLC,> 25 µM
same,TGI,UACC-257 melanoma,> 25 µM
same,TGI,NCI-H460 lung,> 25 µM
same,TGI,NCI/ADR-RES ovarian,> 25 µM
same,TGI,MDA-N,> 25 µM
same,TGI,RXF 393 renal,> 25 µM
same,TGI,SR leukemia,> 25 µM
same,TGI,CCRF-CEM leukemia,> 25 µM
same,TGI,SN12C renal,> 25 µM
same,TGI,SF-295 CNS,> 25 µM
same,TGI,DU-145 prostate,> 25 µM
same,TGI,HL-60(TB) leukemia,18.9 µM
same,TGI,UACC-62 melanoma,> 25 µM
same,TGI,NCI-H226 lung,> 25 µM
same,TGI,SK-MEL-2 melanoma,> 25 µM
same,TGI,SNB-19 CNS,> 25 µM
same,TGI,MDA-MB-435,> 25 µM
same,TGI,NCI-H23 lung,> 25 µM
same,TGI,HS 578T breast,> 25 µM
same,TGI,HT29 colon,> 25 µM
same,TGI,U251 CNS,> 25 µM
same,TGI,SK-MEL-5 melanoma,> 25 µM
same,TGI,TK-10 renal,> 25 µM
same,TGI,HOP-62 NSCLC,> 25 µM
same,TGI,SF-539 CNS,> 25 µM
same,TGI,CAKI-1 renal,10.1 µM
same,TGI,SK-MEL-28 melanoma,> 25 µM
same,TGI,LOX IMVI melanoma,> 25 µM
same,TGI,IGROV1 ovarian,> 25 µM
same,TGI,PC-3 prostate,> 25 µM
same,TGI,ACHN renal,> 25 µM
same,TGI,UO-31 renal,> 25 µM
same,TGI,MDA-MB-231 breast,> 25 µM
same,TGI,SF-268 CNS,> 25 µM
same,TGI,M14 melanoma,> 25 µM
same,TGI,MCF7 breast,> 25 µM
same,TGI,RPMI-8226 leukemia,> 25 µM
same,TGI,A498 renal,> 25 µM
same,TGI,SW-620 colon,> 25 µM
same,TGI,OVCAR-3 ovarian,> 25 µM
same,TGI,KM12 colon,> 25 µM
same,TGI,SK-OV-3 ovarian,> 25 µM
O=S(CCc1ccccc1)Nc1ccccc1 (centres undefined),TGI,MALME-3M melanoma,> 100 µM
same,TGI,EKVX NSCLC,> 100 µM
same,TGI,COLO 205 colon,> 100 µM
same,TGI,MOLT-4 leukemia,> 100 µM
same,TGI,OVCAR-8 ovarian,> 100 µM
same,TGI,HCT-116 colon,> 100 µM
same,TGI,HCT-15 colon,> 100 µM
same,TGI,OVCAR-5 ovarian,> 100 µM
same,TGI,A549 NSCLC,> 100 µM
same,TGI,K-562 leukemia,> 100 µM
same,TGI,UACC-257 melanoma,> 100 µM
same,TGI,NCI-H522 lung,> 100 µM
same,TGI,NCI-H460 lung,> 100 µM
same,TGI,NCI/ADR-RES ovarian,> 100 µM
same,TGI,MDA-N,> 100 µM
same,TGI,RXF 393 renal,> 100 µM
same,TGI,HCC-2998 colon,> 100 µM
same,TGI,SR leukemia,> 100 µM
same,TGI,CCRF-CEM leukemia,> 100 µM
same,TGI,SN12C renal,> 100 µM
same,TGI,SF-295 CNS,> 100 µM
same,TGI,DU-145 prostate,> 100 µM
same,TGI,HL-60(TB) leukemia,> 100 µM
same,TGI,NCI-H226 lung,> 100 µM
same,TGI,SNB-19 CNS,> 100 µM
same,TGI,MDA-MB-435,> 100 µM
same,TGI,NCI-H23 lung,> 100 µM
same,TGI,HS 578T breast,> 100 µM
same,TGI,HT29 colon,> 100 µM
same,TGI,U251 CNS,> 100 µM
same,TGI,SK-MEL-5 melanoma,> 100 µM
same,TGI,TK-10 renal,> 100 µM
same,TGI,HOP-62 NSCLC,> 100 µM
same,TGI,SF-539 CNS,> 100 µM
same,TGI,786-0 renal,> 100 µM
same,TGI,CAKI-1 renal,> 100 µM
same,TGI,SNB-75 CNS,> 100 µM
same,TGI,SK-MEL-28 melanoma,> 100 µM
same,TGI,LOX IMVI melanoma,> 100 µM
same,TGI,IGROV1 ovarian,> 100 µM
same,TGI,PC-3 prostate,> 100 µM
same,TGI,ACHN renal,> 100 µM
same,TGI,UO-31 renal,> 100 µM
same,TGI,MDA-MB-231 breast,> 100 µM
same,TGI,SF-268 CNS,> 100 µM
same,TGI,M14 melanoma,> 100 µM
same,TGI,MCF7 breast,> 100 µM
same,TGI,RPMI-8226 leukemia,> 100 µM
same,TGI,SW-620 colon,> 100 µM
same,TGI,OVCAR-3 ovarian,> 100 µM
same,TGI,KM12 colon,> 100 µM
